According to article PMC9067978, “Design, synthesis, and molecular docking studies of novel pomalidomide-based PROTACs as potential anti-cancer agents targeting EGFR^WT and EGFR^T790M” (Journal of Enzyme Inhibition and Medicinal Chemistry, 2022):

Columns and labels:
caspase-3 = test: Caspase-3 determination (ELISA) in HepG-2 cells; format: cell-based, human; settings: HepG-2, 3.02 µM, 24 hours
Method: Caspase-3 activation was measured using a Caspase-3 ELISA Kit (KHO1091).

HCT-116 [1] = test: Annexin V/propidium iodide apoptosis assay, HCT-116; format: cell-based, human; settings: 3.32 µM, 24 hours
Method: The double staining Annexin V/propidium iodide technique was performed to assess the mechanism of cell death and apoptosis-inducing activity.[46] […] As shown in (Figure 7 (A and B).
The negative control was chosen to be DMSO. The cells were then collected and washed twice in PBS. The cells were separated using centrifugation. An apoptosis detection kit (BD Biosciences, SanJose, CA) was used in this investigation. Following the manufacturer’s instructions, the cells were dyed with Annexin V-FITC and propidium iodide (PI) in the binding buffer for 20 minutes at 37 °C in the darkness. A flow cytometer was used to assess the binding of Annexin V-FITC and PI. The frequencies in all quadrants were investigated using the Flowjo program.[53]

EGFR^WT = biological target: T1, EGFR^WT (Homo sapiens, UniProt P00533); test: EGFR^WT kinase inhibitory assay (HTRF); format: biochemical; settings: ATP 1.65 µM, mean ± S.D of three experiments
T1 construct: purchased Sigma
T1 sequence (P00533 25-1210): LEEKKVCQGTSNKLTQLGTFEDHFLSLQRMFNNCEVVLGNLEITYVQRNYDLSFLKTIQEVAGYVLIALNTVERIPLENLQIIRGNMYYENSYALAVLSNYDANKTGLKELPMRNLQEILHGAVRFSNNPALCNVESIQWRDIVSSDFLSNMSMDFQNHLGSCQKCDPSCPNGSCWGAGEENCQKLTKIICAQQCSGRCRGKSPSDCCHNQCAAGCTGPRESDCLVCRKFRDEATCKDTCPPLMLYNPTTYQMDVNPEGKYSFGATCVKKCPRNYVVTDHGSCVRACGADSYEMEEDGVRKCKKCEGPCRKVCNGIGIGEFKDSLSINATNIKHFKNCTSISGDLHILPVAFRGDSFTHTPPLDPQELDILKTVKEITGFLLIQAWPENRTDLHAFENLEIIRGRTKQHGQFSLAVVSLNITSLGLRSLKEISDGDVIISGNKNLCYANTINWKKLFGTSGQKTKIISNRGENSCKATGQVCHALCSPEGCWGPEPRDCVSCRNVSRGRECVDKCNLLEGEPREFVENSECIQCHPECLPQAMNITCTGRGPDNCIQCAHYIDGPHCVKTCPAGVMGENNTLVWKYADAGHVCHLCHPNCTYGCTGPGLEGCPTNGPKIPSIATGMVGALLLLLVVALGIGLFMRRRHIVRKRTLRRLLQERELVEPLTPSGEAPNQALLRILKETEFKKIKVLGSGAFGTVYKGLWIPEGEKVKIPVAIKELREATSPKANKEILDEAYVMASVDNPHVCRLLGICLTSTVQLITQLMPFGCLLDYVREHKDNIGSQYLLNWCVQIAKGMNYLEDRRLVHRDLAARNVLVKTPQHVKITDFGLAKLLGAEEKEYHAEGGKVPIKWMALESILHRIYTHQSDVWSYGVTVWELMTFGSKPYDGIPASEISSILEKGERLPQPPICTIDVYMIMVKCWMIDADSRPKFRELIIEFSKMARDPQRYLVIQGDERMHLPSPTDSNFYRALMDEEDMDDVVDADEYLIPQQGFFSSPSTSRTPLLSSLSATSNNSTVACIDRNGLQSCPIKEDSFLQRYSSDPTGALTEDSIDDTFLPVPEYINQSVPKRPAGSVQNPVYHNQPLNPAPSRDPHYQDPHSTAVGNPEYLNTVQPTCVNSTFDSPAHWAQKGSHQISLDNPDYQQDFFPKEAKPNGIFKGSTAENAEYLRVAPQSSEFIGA
Method: This test used HTRF[44] assay with EGFR^WT and EGFR^T790M (Sigma). For the first 5 minutes, the evaluated compounds were incubated with EGFR^WT and/or EGFR^T790M and their substrates in the enzymatic buffer. […] The assay was performed at 37 °C for 30 minutes. The addition of EDTA-containing detection reagents halted the process. After one hour detection period, GraphPad Prism 5.0 was used to calculate the IC50 values. For each concentration, three separate trials were carried out.

MCF-7 = test: DNA-flow cytometric cell cycle analysis, MCF-7; format: cell-based, human; settings: 3.92 µM, 24 hours
Method: (§1) Then, the influence of compound 16 on the cell cycle profile was then investigated.
(§2) The cells that had been tested were then trypsinized and washed in sterilised phosphate buffer saline (PBS). The collected cells were fixed with cold ethanol (100%, 1.5 ml). According to the manufacturer’s instructions, a Cycle TESTTM PLUS DNA Reagent Kit was used to dye the cells (BD Biosciences, San Jose, CA). A flow cytometer was used to assess cell-cycle distribution.[52]

HCT-116 [2] = test: MTT anti-proliferative assay, HCT-116
Method: The anti-proliferative activity was quantified in the following way. At a density of 3–8 × 10^3 cells per well, human cancer cell lines were introduced to 96-well plates. The wells were then incubated at 37 °C for 12 hours in 5% CO2 incubator. To determine the DMSO content, the culture media was swapped with 0.1 ml of fresh medium containing graded amounts of the test compounds for each well. Incubation time for the wells was two days. The cells were then cultured in 100 µl MTT solution (5 µg ml^−1) for another 4 hours in each well.
The absorbance of each well was measured at 490 nm with an automated ELISA reader system (TECAN, CHE) after MTT-formazan crystals were dissolved in 100 µl of DMSO. The IC50 values were calculated using nonlinear regression fitting models (Graph Pad, Prism Version 5). The results were expressed as means ± SD and were based on the average of three separate, duplicate trials.

HepG-2 = test: DNA-flow cytometric cell cycle analysis, HepG-2; format: cell-based, human; settings: 3.02 µM, 24 hours
Method: as §1, §2

EGFR phosphorylation = test: Western blotting, EGFR phosphorylation in A549 cells; format: cell-based, human; settings: A549 cells, 0.1, 0.3 and 1 µM, erlotinib for comparison
Method: At a concentration of 100 nM, the time-dependent degradation activities of compounds 15–21 were also examined (Figure 5(A)).
Figure 5. (A) EGFR time-dependent degradation by compound 16 in A549 cell lines. Cells were treated with100 nM of 15–21 for indicated time points. Western blotting was used to evaluate EGFR protein, and densitometry was used to measure EGFR degradation, which was adjusted to the density of β-actin protein (n ¼2). (B) Compounds 15 and 16 have EGFR degradation and phosphorylation inhibitory action in A549 cells. The cells were exposed to concentrations of 0.1, 0.3, and 1 µM. Erlotinib were utilised for comparison. […]
Cells were seeded in 6-well plates at 1 × 10^6 per well, incubated at 37 °C with 5% CO2 for 24 h before drug exposure. […] The results were detected by an enhanced chemiluminescence system (Mill-pore). […]

In the case of `Cn1c(=O)c(C(=O)NNCCOCCOCC(=O)Nc2cccc3c2C(=O)N(C2CCC(=O)NC2=O)C3=O)nc2ccccc21` (stereo not drawn) [Compound 16, N-(2-(2,6-dioxopiperidin-3-yl)-1,3-dioxoisoindolin-4-yl)-2-(2-(2-(2-(4-methyl-3-oxo-3,4-dihydroquinoxaline-2-carbonyl) hydrazinyl)ethoxy)ethoxy) acetamide], the “increase of caspase-3 level vs control cells” value (caspase-3) is reported as 6.31 fold, the “cellular apoptosis, early and late, times vs control, HCT-116” value (HCT-116 [1]) is reported as roughly 9 times and the “early apoptosis ratio, HCT-116” value (HCT-116 [1]) is reported as 5.96%. The “late apoptosis ratio, HCT-116” value (HCT-116 [1]) was 5.15%, the IC50 (EGFR^WT) was 100 ± 30 nM and the “fold increase of cells in G2-M phase vs control, MCF-7” value (MCF-7) was 1.53 fold. For the same molecule, the “fold increase of cells in pre-G1 phase vs control, MCF-7” value (MCF-7) was 4.39 fold, the IC50 (HCT-116 [2]; Homo sapiens, HCT-116, read-out: IC50 HCT-116) was 3320 ± 150 nM and the “folds more active than erlotinib, HCT-116” value (HCT-116 [2]; ratio of cytotoxic IC50 to erlotinib) was 5.04 folds. The “fold increase of cells in G2-M phase vs control, HepG-2” value (HepG-2) was 1.61 fold, the “fold increase of cells in pre-G1 phase vs control, HepG-2” value (HepG-2) was 6.76 fold and the “inhibition of EGFR phosphorylation, in words” value (EGFR phosphorylation) was “effectively displayed inhibitory activity”.
